Three molecules from patent US20130190407A1, “CALCIUM RECEPTOR-ACTIVE MOLECULES” (NPS Pharmaceuticals, Inc., priority 1991, published 2013) can be followed below.

Assay [1] deals with T1, human parathyroid cell calcium receptor (Homo sapiens, UniProt P41180, E1011Q/Q926R).
T1 construct: appear to be full-length clones corresponding to the 5 Kb mRNA; expressed in transfected cells; host or cells: Xenopus laevis oocytes injected with pHuPCaR 5.2
T1 sequence (P41180 20-1088 isoform P41180-2 Q936R/E1021Q): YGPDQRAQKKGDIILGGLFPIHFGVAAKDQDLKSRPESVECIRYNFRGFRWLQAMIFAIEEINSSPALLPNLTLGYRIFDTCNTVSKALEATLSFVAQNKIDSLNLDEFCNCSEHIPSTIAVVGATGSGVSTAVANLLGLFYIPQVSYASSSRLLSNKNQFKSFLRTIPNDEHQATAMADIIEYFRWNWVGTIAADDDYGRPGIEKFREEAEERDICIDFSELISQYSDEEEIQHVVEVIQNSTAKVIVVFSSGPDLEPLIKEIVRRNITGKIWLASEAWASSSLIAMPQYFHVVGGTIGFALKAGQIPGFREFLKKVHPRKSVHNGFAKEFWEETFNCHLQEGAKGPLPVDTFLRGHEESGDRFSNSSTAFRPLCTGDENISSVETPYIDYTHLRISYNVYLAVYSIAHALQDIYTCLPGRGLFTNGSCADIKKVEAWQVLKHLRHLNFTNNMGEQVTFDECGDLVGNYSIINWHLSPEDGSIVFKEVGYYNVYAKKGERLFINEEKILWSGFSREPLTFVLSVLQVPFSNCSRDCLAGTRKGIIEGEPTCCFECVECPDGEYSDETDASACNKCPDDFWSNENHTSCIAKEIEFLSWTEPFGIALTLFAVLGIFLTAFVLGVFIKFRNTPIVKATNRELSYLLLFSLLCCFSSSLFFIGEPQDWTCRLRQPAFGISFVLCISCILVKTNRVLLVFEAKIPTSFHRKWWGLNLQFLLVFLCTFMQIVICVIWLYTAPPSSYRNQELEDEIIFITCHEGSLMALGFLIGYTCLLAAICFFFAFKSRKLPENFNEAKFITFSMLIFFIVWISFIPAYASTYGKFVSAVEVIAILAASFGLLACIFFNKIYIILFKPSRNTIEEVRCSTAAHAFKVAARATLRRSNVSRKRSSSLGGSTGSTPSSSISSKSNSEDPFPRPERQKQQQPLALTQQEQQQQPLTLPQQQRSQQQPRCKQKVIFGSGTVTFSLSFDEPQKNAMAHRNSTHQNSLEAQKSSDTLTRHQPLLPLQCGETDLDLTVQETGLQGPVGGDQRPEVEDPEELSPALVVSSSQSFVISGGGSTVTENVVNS
The assay is described as follows: Cl- current in Xenopus oocytes injected with pHuPCaR 5.2. It counts as cell-based. Conditions: 3 to 30 μM; 0.3 mM extracellular Ca2+. The procedure: Xenopus oocytes were injected with pHuPCaR 5.2, the 5.2 Kb cDNA encoding a parathyroid cell calcium receptor derived from a human parathyroid cell adenoma. (See Example 27.) After two to three days, Cl^− currents were measured in the oocytes using a two-electrode voltage clamp.

A further assay concerns Sprague-Dawley rats. The assay is described as follows: Serum/plasma Ca2+, PTH and calcitonin in rats in vivo. On the set-up: species or system rat. The note with it: for ED50: Rattus norvegicus, po, normal adult rats. As to the method:
Compounds shown to activate the bovine parathyroid cell calcium receptor in vitro were tested for hypocalcemic activity in vivo. Male Sprague-Dawley rats (200 g) were maintained on a low calcium diet for one week prior to receiving test substance or vehicle as control. Blood was collected from the tail vein three hours after the intra-peritoneal administration of NPS 467. […] Serum total calcium, albumin and phosphate were measured by techniques well known in the art.
Rats (male, Sprague-Dawley, 250-300 g) were fed standard rat chow and fasted overnight prior to the experiment. NPS R-467 was suspended in corn oil, and administered as a single oral dose through a gavage needle. Three hours later a sample of blood was taken from the tail vein and assessed for ionized Ca^2+ levels.

Another assay deals with human parathyroid cells. Kind of assay: PTH secretion from human parathyroid cells. The assay is classed as cell-based. The note with it: concentrations that mobilize intracellular Ca2+. As to the method: PTH secretion was measured by first suspending cells in PCB containing 0.5 mM CaCl2 and 0.1% BSA.
For human cells, a commercially available radioimmunoassay kit (INS-PTH; Nichols Institute, Los Angeles, Calif.) which recognizes intact and N-terminal human PTH was used because GW-1 antibody recognizes human PTH poorly.

The target of assay [2] is T2, parathyroid cell calcium receptor (Homo sapiens, UniProt P41180).
T2 construct: Dissociated parathyroid cells were prepared from a parathyroid adenoma obtained by surgery; endogenous in cells; host or cells: dissociated primary human parathyroid cells from patients with primary or uremic hyperparathyroidism
T2 sequence (P41180 20-1078): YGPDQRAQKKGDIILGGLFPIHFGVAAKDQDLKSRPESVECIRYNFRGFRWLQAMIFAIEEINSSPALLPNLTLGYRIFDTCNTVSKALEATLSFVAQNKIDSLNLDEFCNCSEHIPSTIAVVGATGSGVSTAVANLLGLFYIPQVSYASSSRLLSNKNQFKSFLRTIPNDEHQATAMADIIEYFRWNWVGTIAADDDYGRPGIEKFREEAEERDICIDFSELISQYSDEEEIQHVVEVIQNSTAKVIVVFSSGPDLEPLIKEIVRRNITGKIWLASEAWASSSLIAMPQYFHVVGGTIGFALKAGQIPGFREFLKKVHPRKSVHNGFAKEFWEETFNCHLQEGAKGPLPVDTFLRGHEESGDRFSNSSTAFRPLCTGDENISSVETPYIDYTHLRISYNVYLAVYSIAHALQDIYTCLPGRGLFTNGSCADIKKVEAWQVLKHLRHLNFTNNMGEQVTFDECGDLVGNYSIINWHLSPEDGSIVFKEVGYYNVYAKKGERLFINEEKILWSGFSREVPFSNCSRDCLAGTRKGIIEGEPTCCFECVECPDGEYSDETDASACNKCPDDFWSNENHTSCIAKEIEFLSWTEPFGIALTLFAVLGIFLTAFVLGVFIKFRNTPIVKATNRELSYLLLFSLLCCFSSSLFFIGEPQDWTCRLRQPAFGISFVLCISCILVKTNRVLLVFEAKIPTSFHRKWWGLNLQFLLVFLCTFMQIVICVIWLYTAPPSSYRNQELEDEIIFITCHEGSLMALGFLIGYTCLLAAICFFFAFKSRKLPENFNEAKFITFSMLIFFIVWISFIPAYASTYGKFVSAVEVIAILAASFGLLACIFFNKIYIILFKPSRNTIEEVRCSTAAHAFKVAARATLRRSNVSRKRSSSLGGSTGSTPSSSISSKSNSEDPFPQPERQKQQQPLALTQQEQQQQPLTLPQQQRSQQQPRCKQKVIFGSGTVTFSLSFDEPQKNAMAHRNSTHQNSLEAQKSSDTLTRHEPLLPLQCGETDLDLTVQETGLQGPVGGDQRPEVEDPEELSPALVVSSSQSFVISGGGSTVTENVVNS
Kind of assay: [Ca2+]i (fura-2) in human parathyroid cells. It counts as cell-based. Conditions: 20 μM.
Procedure: This section describes procedures used to obtain and treat parathyroid cells from calves and humans. […] Human parathyroid glands, were obtained from patients undergoing surgical removal of parathyroid tissue for primary or uremic hyperparathyroidism (uremic HPT), and were treated similarly to bovine tissue.
The cells were then pelleted, resuspended in the same buffer, but lacking the ester, and incubated a further 15 minutes at 37° C. The cells were subsequently washed twice with PCB containing 0.5 mM CaCl2 and 0.5% BSA and maintained at room temperature (about 20° C.) Immediately before use, the cells were diluted five-fold with prewarmed 0.5 mM CaCl2-PCB to obtain a final BSA concentration of 0.1%. The concentration of cells in the cuvette used for fluorescence recording was 1−2×10^6/ml.
The fluorescence of indicator-loaded cells was measured at 37° C. in a spectrofluorimeter (Biomedical Instrumentation Group, University of Pennsylvania, Philadelphia, Pa.) equipped with a thermostated cuvette holder and magnetic stirrer using excitation and emission wavelengths of 340 and 510 nm, respectively. […] To correct the calibration for dye leakage, cells were placed in the cuvette and stirred at 37° C. for 2-3 minutes. The cell suspension was then removed, the cells pelleted, and the supernatant returned to a clean cuvette. […] This estimate was subtracted from the apparent Fmin.

Like-named read-outs stand apart in the source and are kept apart here.

One may read the ED50 as the dose at which the effect has come halfway, by size or by number of responders. For the molecule `COc1cccc([C@@H](C)NCCCc2ccccc2Cl)c1` [NPS R-568, (R)-(+)-N-[3-(2-chlorophenyl)propyl]-α-methyl-3-methoxybenzylamine], in assay [1], the Cl- current result is given as “evoked increases in the Cl^− current”. The values for the ED50 in the assay with Sprague-Dawley rats (read-out: ED50 for depression of plasma Ca2+), in the assay on Sprague-Dawley rats (read-out: ED50 for depression of plasma PTH) and in the assay with Sprague-Dawley rats (read-out: ED50 for stimulation of calcitonin) were 8 mg/kg, 1 mg/kg and 40 mg/kg, respectively.
`COc1cccc([C@@H](C)NCCCc2ccccc2)c1` (single isomer, unassigned) [NPS R-467]: the “potency in lowering serum Ca2+ in vivo” value in the assay with Sprague-Dawley rats (5 mg/kg body weight) is on record as “more potent than the S-isomer in lowering serum Ca^2+ in vivo”. Further, in the assay with Sprague-Dawley rats (single oral dose in corn oil, three hours), the “serum ionized Ca2+” value is “dose-dependent reduction in serum levels of ionized Ca^2+”.
`NC[C@@H]1O[C@H](O[C@H]2[C@@H](O)[C@H](O[C@@H]3[C@@H](O)[C@H](N)C[C@H](N)[C@H]3O[C@H]3O[C@H](CN)[C@@H](O)[C@H](O)[C@H]3N)O[C@@H]2CO)[C@H](N)[C@@H](O)[C@@H]1O` [Neomycin B, neomycin B]: the PTH secretion entry with human parathyroid cells is on record as “inhibited PTH secretion”. In addition, the “increase in [Ca2+]i” value in assay [2] was “large increase”.
